Assay results taken from patent US20220195332A1, “DIETARY BUTYRATE AND ITS USES” (SOCIETE DES PRODUITS NESTLE S.A., priority 2019, published 2022).

How the values were obtained:
[1] = tested on: porcine pancreatic lipase (PPL); details: pig, 3 h, pH 11.5
Description: Because many fatty acids are only partially ionised at pH 6.8, direct titration gives only partial picture of the extent of lipid digestion, instead back titration to pH 11.5 or GC-FAME analysis is required to estimate the full extent of digestion.

[2] = tested on: rabbit gastric lipase (RGL) followed by porcine pancreatic lipase (PPL); test: Sequential in vitro digestion in simulated gastric fluid (SGF) followed by simulated intestinal fluid (SIF), pH-stat

Extent of digestion [1]: 101.5±0.9%
Initial lipolysis rate in SIF compartment ([2]; SGF-SIF sequential digestion (90 minutes SGF pH 5.5, then SIF pH 6.8)): 44.1 ± 8.8 µmol/min
Lipolysis by gastric lipase ([2]; indicated by decreased total fatty acid release during SIF after RGL pre-exposure): ~60%
Hydrolysis in the stomach (gastric lipolysis), in words ([2]; simulated gastric compartment): extensive hydrolysis in the stomach
Compound: CCCC(=O)OCC(COC(=O)CCC)OC(=O)CCC [tributyrin]
